Target: human μ opiate receptor (Homo sapiens, UniProt P35372)
Assay: μ opiate receptor binding assay, membrane preparation of CHO-K1 cells, [3H]-naloxone (or DAMGO) displacement
Conditions: radioligand [3H]-naloxone 1 nmole/l; Cheng-Prusoff

Sequence of human μ opiate receptor (P35372 whole entry): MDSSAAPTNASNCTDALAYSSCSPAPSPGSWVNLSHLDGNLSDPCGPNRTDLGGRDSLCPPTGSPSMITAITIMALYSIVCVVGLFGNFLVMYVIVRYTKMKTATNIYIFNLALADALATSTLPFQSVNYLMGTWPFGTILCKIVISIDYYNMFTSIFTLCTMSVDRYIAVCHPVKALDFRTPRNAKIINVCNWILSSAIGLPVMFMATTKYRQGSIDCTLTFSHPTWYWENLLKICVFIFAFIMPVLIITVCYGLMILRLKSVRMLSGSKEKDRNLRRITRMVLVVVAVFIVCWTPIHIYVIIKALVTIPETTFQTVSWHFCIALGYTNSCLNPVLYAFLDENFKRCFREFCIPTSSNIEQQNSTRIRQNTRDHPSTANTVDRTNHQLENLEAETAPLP

CN(C)C1(c2ccccc2)CCC(NC(=O)N2CCC(C3C=Nc4ccc(F)cc43)CC2)CC1 (stereo not shown) [Example 34, 4-(5-fluoro-1H-indol-3-yl)piperidine-1-carboxylic acid-(4-dimethylamino-4-phenylcyclohexyl)-amide]
Ki: 120 nM
